From a melting point compilation (Tetko et al.; mined from patent text by program, amines drawn as free bases though some values may be those of a salt) come the findings set out here.

Molecules are shown by their SMILES.

Turning to `Cc1cc(SC2=C(O)CC(C3CCCC3)(C3CCCC3)OC2=O)c(C(C)(C)C)cc1NS(=O)(=O)c1ccc(C(F)(F)F)cn1`, the melting point (commonly the temperature, or range, at which the solid turns liquid) fell in the range of 127 to 129 °C.

`CCOC(=O)C1C=Nc2c(cc(F)cc2[N+](=O)[O-])C1=O` (configuration not stated) yielded a melting point of 278 to 280 °C.

`CC1(C)O[C@@H](CC(=O)O)C[C@@H](C=Cc2ccccc2)O1` (relative stereo): the melting point lay within 153 to 155 °C.

The compound `COc1cc(OCc2ccccn2)ccc1/C=C/c1cc(/C=C/c2c[nH]c3ccc(F)cc23)n[nH]1` returned a melting point of 209 to 213 °C.

`COC(=O)c1cc(C(=O)NN)c2cc(Cc3ccc(F)cc3)cnc2c1O` showed a melting point of 156 to 157 °C.

`COc1cccc(-c2nc(-c3ccccc3)c3ncc(-c4cccc5ccccc45)cc3n2)c1` returned a melting point of 166 to 167 °C.

`CCOP(=O)(CS(=O)(=O)Oc1ccccc1)OCC` yielded a melting point of 50.5 to 51.5 °C.

In the case of `CC(C)OC(=O)c1ncn2c1CN(C)C(=O)c1cc(F)ccc1-2`, the melting point lay in the range of 243 to 244 °C.

The compound `O=C1C(=O)c2ccccc2C2=C1SCC1(CCOCC1)O2` registered a melting point of 195 to 197 °C.

In the case of `Cc1nnc2c(-c3ccccc3)nccn12`, the melting point fell in the range of 178 to 180 °C.

With `CCOC(=O)N(c1cccc(C(F)(F)F)c1)c1ccccc1-n1nc(C(=O)O)nc1CCl`, the melting point is 100 to 108 °C.

In turn, `N#Cc1ccccc1NC1=CC(=O)CCC1` yielded a melting point of 206 °C.

`CCOC(=O)C=Cc1cc([N+](=O)[O-])ccc1OCCCc1ccccc1` returned a melting point of 117 to 118 °C.

With `COc1cc(COc2cccc(CC(=O)O)c2-c2cccc(C(=O)O)c2)ccc1C12CC3CC(CC(C3)C1)C2`, the melting point was in the range of 240 to 242 °C.

Compound `CC(=O)Nc1nc2ccc(Cl)nc2c(=O)[nH]1` showed a melting point of 317 to 319 °C.

Compound `OC(Cn1cncn1)(Cn1cnc(C=Cc2ccc(C(F)(F)F)cc2)n1)c1ccc(OC(F)(F)F)cc1` (configuration not stated) came in with a melting point of 193 to 195 °C.

For `COc1cc(Nc2nccc(NCc3ccccc3)n2)cc(OC)c1OC`, the melting point was 135 to 136 °C.

`CCCc1nc2c(C)cc(C)nc2n1C1CCc2cc(-c3ccccc3-c3nnn[nH]3)ccc21` (configuration not stated): the melting point came to 173 °C.

In turn, `Cc1ccc(N2CCN(Cc3n[nH]c4c(Cl)cccc34)CC2)cc1` registered a melting point of 187 to 188 °C.

`O=C(O)c1cn(-c2cnsn2)c2nc(Cl)c(F)cc2c1=O` showed a melting point of 222 to 223 °C.

In the case of `CC(Nc1ncnc2c1ncn2C1OC(CO)C(O)C1O)c1ccccc1` (configuration not stated), the melting point is 165 to 167 °C.

In turn, `COc1cc(C2C3=C(COC3=O)Nc3ccc4nn[nH]c4c32)cc(OC)c1OC` (configuration not stated) had a melting point of 324 to 325 °C.

`Cc1c(C(=O)Nc2ccc(N3CCC(N(C)C)CC3)c(C#N)c2)cnn1-c1ccc(Cl)cc1`: the melting point fell in the range of 210 to 213 °C.

`Brc1ccc(-c2ccc(I)cc2)cc1` showed a melting point of 177 to 179 °C.

Consider `CN(CCCC(C(N)=O)(c1ccccc1)c1ccccc1)CCc1ccc2c(c1)OCO2`, for which the melting point fell in the range of 89 to 90 °C.

As to `CCOC(=O)c1ccc(COc2ccc3c(c2)C(C)(C)CCC3(C)C)cc1`, the melting point is 76 to 77 °C.

On to `CC1(C)CC(=O)Nc2cc3nc(-c4ccc(C(N)=O)cc4)[nH]c3cc21`, for which the melting point lay within 317 to 319 °C.

As for `COc1cc2cc(C3CCCCC3)sc2c(Cl)c1Cl`, the melting point worked out at 60 °C.

Regarding `N#Cc1ccc(N2C(=O)NC3(CCCCC3)C2=O)cc1C(F)(F)F`, the melting point was determined as 187 °C.

On to `O=C1CCCN1c1cccc(CO)c1`, for which the melting point fell in the range of 120 to 121 °C.

Compound `CCOC(=O)c1c[nH]c2nc(NCc3ccccc3)nn2c1=O` showed a melting point of 275 to 278 °C.

Regarding `COc1ccc(N(S(=O)(=O)c2ccc(C)cc2)S(=O)(=O)c2ccc(C)cc2)c([N+](=O)[O-])c1`, the melting point is 180 to 182 °C.

`O=C1CCc2c1cccc2-c1ccc(C(F)(F)F)cc1` returned a melting point of 75 to 78 °C.

`CC(=O)c1cc2c(cc1F)OC(C)(C)[C@@H](O)[C@@H]2NC(=O)c1ccc(F)cc1` (relative stereo) had a melting point of 200 to 203 °C.

`CCCCN(CC)CC(=O)N1c2ccccc2N(C)C(=O)c2cncnc21` displayed a melting point of 131 to 133 °C.

`N#Cc1cccnc1N1CCN(CC(=O)Nc2ccccc2C(F)(F)F)CC1` yielded a melting point of 143 to 145 °C.

The compound `CC=CCNc1ccc(Oc2nc(OC)cc(OC)n2)c(C(=O)OC)n1` gave a melting point of 82 to 85 °C.

Compound `O=[N+]([O-])c1cc(C(F)(F)F)c(Cl)cc1NCP(=O)(O)O` showed a melting point of 207 °C.

`O=c1c(Cc2ccccc2)c2n(c(=O)n1CCCCCl)CCCS2(=O)=O` yielded a melting point of 103 to 105 °C.

On to `COC(=O)c1ccc(C(=O)CC(=O)/C=C/c2ccc(O)c(OC)c2)cc1`, for which the melting point lay in the range of 187 to 189 °C.

`CCc1cccc(CC)c1NC(=O)NC1(c2cccs2)CCCCC1` showed a melting point of 208 to 210 °C.

For `Cc1ccc(S(=O)(=O)N[C@@H]2COC(=O)[C@H]2Cc2ccccc2)cc1`, the melting point lay within 108 to 109 °C.

For the compound `O=C1N(Cc2nc(C(F)(F)F)cs2)c2ccccc2C12COc1cc3c(cc12)OCCO3` (configuration not stated), the melting point is 169 to 170 °C.

`O=c1c(N2CCCNCC2)nc2cc(F)ccc2n1-c1ccccc1` registered a melting point of 151 to 152 °C.

For `CC(=O)Nc1ccc2cnn(-c3ccnc(N[C@H]4CC[C@H](O)CC4)n3)c2c1`, the melting point is 288 to 290 °C.

In turn, `Cc1c(-c2cc(C(=O)OC(C)C)c(Cl)cc2F)nn(C)c1C(F)(F)F` gave a melting point of 72 °C.

In turn, `CCCCN(CCCC)c1ccc(C=Cc2ccc(C=CC3=C(C#N)C(=C(C#N)C#N)OC3(C)C)s2)c(O[Si](c2ccccc2)(c2ccccc2)C(C)(C)C)c1` came in with a melting point of 218 to 219 °C.

With `CCCC1=C(C(=O)OCC)C(c2cc(F)ccc2OC)c2c[nH]nc2N1` (configuration not stated), the melting point is 164 to 167 °C.

Consider `CCCC(CCC)(CCC)C(=O)O`, for which the melting point turned out to be 67 °C.

For the compound `Cc1ccc(OC(=O)N=C2NC(c3ccc(C)cc3)=NC2(C(F)(F)F)C(F)(F)F)cc1`, the melting point was 161 to 163 °C.

Consider `CNC1Cc2ccccc2C1Nc1ccc(Cc2ccccc2)cc1` (configuration not stated), for which the melting point was 137 to 138 °C.

In turn, `CCOC(=O)c1cnn(-c2cc(C(=O)Nc3cc(C(C)(C)C)cc(NS(C)(=O)=O)c3OC)ccc2C)c1` came in with a melting point of 125 to 130 °C.

Take `CCN1c2c(oc(=O)n(-c3ccccn3)c2=O)-c2ccccc2S1(=O)=O`: the melting point lay in the range of 268 to 270 °C.

`Cc1cc(C(=O)NCCCCc2ccc(-c3ccc(=O)[nH]n3)cc2)on1`: the melting point was in the range of 236 to 238 °C.

On to `Cc1cc(C)nc(NC(=O)NS(=O)(=O)c2ccccc2-c2ccccc2)n1`, for which the melting point was 78 °C.

With `Cn1cc(C[C@H]2NC(=O)[C@@H](CCC(=O)O)NC2=O)c2ccccc21`, the melting point worked out at 228 °C.

With `CSC1=Nc2cc(Cl)ccc2Nc2cscc21`, the melting point fell in the range of 111 to 113 °C.

In turn, `CCCCc1nc(=O)n2ncc(Br)c2[nH]1` came in with a melting point of 188 °C.

Compound `COc1cn(Cc2ccc(OC)c(OC)c2)c(=O)o1` came in with a melting point of 99.5 to 102 °C.

Compound `Cc1cccc(OC(=O)C(=O)Oc2cccc(C)c2)c1` yielded a melting point of 101 to 103 °C.

`CN(CC(O)CN(C)S(=O)(=O)C(F)(F)C(F)(F)C(F)(F)C(F)(F)F)S(=O)(=O)C(F)(F)F` (configuration not stated) returned a melting point of 79 to 85 °C.

`COC(=O)[C@@H]1CCCN1S(=O)(=O)c1ccc(Cl)c(COc2cccc3ccc(C)nc23)c1Cl` displayed a melting point of 136 °C.

`COCCOc1ccc(-c2nc(C(=O)Nc3nccs3)c(-c3ccc(Cl)cc3)[nH]2)cc1`: the melting point lay within 147 to 148 °C.

`Oc1ccc(C2CC2(Cl)Cl)cc1` (configuration not stated): the melting point fell in the range of 54.5 to 56 °C.

Compound `COC(=O)C(CSCc1ccc(OC)cc1)NC(=O)NCCCCC1CCSS1` (configuration not stated) gave a melting point of 105 to 107 °C.

Regarding `O=C(C=Cc1ccccc1)CC(=O)C=Cc1ccccc1`, the melting point was found to be 138 °C.

Regarding `COc1ccc(CCNC(=O)C23CC4CC(CC(C4)C2)C3)cc1OC`, the melting point lay in the range of 132 to 133 °C.

In turn, `CSC(=NS(=O)(=O)c1ccc(C)cc1)N1CCc2nc(N)sc2C1` yielded a melting point of 191 to 195 °C.

As to `Cc1ccc2cc(NS(=O)(=O)c3cccc(Cl)c3C)ccc2n1`, the melting point is 178 °C.

`Cc1ccc(C(=O)c2c(Br)cc(CC(=O)O)n2C)cc1` registered a melting point of 155 to 157 °C.

Consider `O=C(CCl)c1cccnn1`, for which the melting point is 104 to 106 °C.

For the compound `C=CCN1C2CCC1C1CCC2N1C(c1ccc(C(=O)N(CC)CC)cc1)c1cccc(OC)c1` (configuration not stated), the melting point was in the range of 99 to 101 °C.

Compound `Cc1ccc2c(c1Cl)S(=O)(=O)NCN2C1CC1` yielded a melting point of 230 to 232 °C.

Turning to `CCCCOC(=O)Cc1nc(-c2ccc(Cl)cc2)oc1-c1ccsc1`, the melting point was 79 to 81 °C.

Compound `NS(=O)(=O)c1ccc(-c2c(-c3ccccc3)noc2C(=O)O)cc1` came in with a melting point of 300 °C.

In turn, `C[C@@H]1C[C@H](C)CN(S(=O)(=O)c2ccc(Cl)c(C(=O)NCC(=O)O)c2)C1` returned a melting point of 190 to 192 °C.

As to `CCOC(=O)/C=C/c1ccc(Cl)c(Cl)n1`, the melting point is 102 to 103 °C.

For the compound `O=C(/C=C/c1cccnc1)NCCc1cccc(OCc2ccccc2)c1`, the melting point lay within 115 to 116 °C.

In turn, `Cc1cc(C)cc(N(CCCC(N)=O)Cc2ccc3nc(NCCCN4CCOCC4)n(Cc4ncccc4O)c3c2)c1` showed a melting point of 170 °C.

Consider `CN1C(=O)C2(COc3cc4c(cc32)OCCO4)c2c(C(=O)NCc3ccccn3)cccc21` (configuration not stated), for which the melting point fell in the range of 214 to 215 °C.

`COC(c1ccccc1)C1CCCCCC(=Cc2ccccc2)C1=O` (configuration not stated) displayed a melting point of 136 to 139 °C.

`CCOC(=O)c1cc2c(C)ccc(OCCO)c2[nH]1` showed a melting point of 166 to 167 °C.

`Cc1nc(N(C)C)n2ncc(-c3ccncc3)c2n1` yielded a melting point of 195 to 197 °C.

Compound `O=CNc1nc(NC2CC2)nc(N2CCOCC2)n1` returned a melting point of 288 °C.

`CNc1nc(C(C)c2ccc(-c3ccccc3)c(F)c2)co1` (configuration not stated) yielded a melting point of 134 to 135 °C.

As to `CC(=O)N[C@@H](c1ccccc1)[C@@H](O)C(=O)OC(C)C`, the melting point fell in the range of 104 to 106 °C.

The compound `CCCCCCCCSc1ccc(CC(CO)(CO)NC(C)=O)cc1` came in with a melting point of 76 to 78 °C.
